Target: pyruvate dehydrogenase kinase 2 (PDK2) (Homo sapiens, UniProt Q15119)
Experiment: mobility shift kinase assay with purified GST-PDK2; supported by DARTS, CETSA, co-IP-MS and LiP-MS
Format: biochemical

O=C(O)[C@H]1O[C@@H](Oc2cc3oc(-c4ccc(O)cc4)cc(=O)c3c(O)c2O)[C@H](O)[C@@H](O)[C@@H]1O [SG, Scutellarin]
mobility shift kinase assay with purified GST-PDK2; supported by DARTS, CETSA, c: SG had significantly higher inhibitory activity against PDK2 than DCA at multiple concentrations
